In ChEMBL document CHEMBL1146645, “Synthesis and structure-activity relationships of 3-substituted 1,4-dihydro-4-oxo-1-(2-thiazolyl)-1,8-naphthyridines as novel antitumor agents” (Bioorg Med Chem Lett, 2004):
Converted amounts (≈) assume the structure as drawn.

Tests used:
Escherichia coli = test: In vitro antibacterial activity of compound towards Escherichia coli NIHJ JC-2; assay type: functional
P388 = test: In vitro cytotoxicity was measured towards murine lymphocytic leukemia P388 cells; assay type: functional, cell-based; details: Mus musculus
Staphylococcus aureus = test: In vitro antibacterial activity towards Staphylococcus aureus 209 JC-1; assay type: functional
Mus musculus [1] = test: In vivo antitumor activity against murine P388 leukemia measured as median survival of treated mice to that of control (T/C) at a dose of 50 mg/kg; assay type: functional
Mus musculus [2] = test: In vivo antitumor activity against murine P388 leukemia measured as median survival of treated mice to that of control (T/C) at a dose of […]; assay type: functional
KB = test: Cytotoxic activity against human KB nasopha tumor cell line; assay type: functional, cell-based
MKN-45 = test: Cytotoxic activity against human MKN45 stomach tumor cell line; assay type: functional, cell-based
A-427 = test: cells; assay type: functional, cell-based; details: Homo sapiens
Description: Cytotoxic activity against human A-427 lung tumor cell line

WiDr = test: Cytotoxic activity against human WiDr colon tumor cell line; assay type: functional, cell-based
AZ-521 cell line = test: cells; assay type: functional, cell-based; details: Homo sapiens
Description: Cytotoxic activity against human AZ-521 stomach tumor cell line

HMV-2 cell line = test: Cytotoxic activity against human HMV-2 melanoma tumor cell line; assay type: functional, cell-based
C-33-A = test: Cytotoxic activity against human C-33A cervix tumor cell line; assay type: functional, cell-based

Row | MIC (Escherichia coli) [µg/mL] | MIC (Staphylococcus aureus) [µg/mL] | Compound | IC50 (P388) [µg/mL] | T/C (Mus musculus [1]) [%] | T/C (Mus musculus [2]) [%] | T/C (Mus musculus [2]; dose […]) [%] | IC50 (KB) [µg/mL] | IC50 (MKN-45) [µg/mL] | IC50 (A-427) [µg/mL] | IC50 (WiDr) [µg/mL] | IC50 (AZ-521 cell line) [µg/mL] | IC50 (HMV-2 cell line) [µg/mL] | IC50 (C-33-A) [µg/mL] | T/C (Mus musculus [2]; dose […] mg/kg, […]) [%]
1 | 0.78 (≈ 2.25 µM) | 50 (≈ 144 µM) | NC1CCN(c2nc3c(cc2F)c(=O)c(O)cn3-c2nccs2)C1 (stereo not given) | 0.168 (≈ 0.484 µM) | – | – | – | – | – | – | – | – | – | – | –
2 | 12.5 (≈ 31 µM) | 50 (≈ 124 µM) | CCOC(=O)c1cn(-c2nccs2)c2nc(N3CCC(N)C3)c(F)cc2c1=O (stereo not given) | 0.136 (≈ 0.337 µM) | – | – | – | – | – | – | – | – | – | – | –
3 | > 100 | > 100 | NC(=O)c1cn(-c2nccs2)c2nc(N3CCC(N)C3)c(F)cc2c1=O (stereo not given) | 0.269 (≈ 0.718 µM) | – | – | – | – | – | – | – | – | – | – | –
4 | 100 (≈ 237 µM) | 50 (≈ 119 µM) | NC1CCN(c2nc3c(cc2F)c(=O)c(Cc2ccccc2)cn3-c2nccs2)C1 (stereo not given) | 0.0178 (≈ 0.0422 µM) | – | – | – | – | – | – | – | – | – | – | –

The next lines start with the molecule.

Row | Compound | MIC (Escherichia coli) [µg/mL] | MIC (Staphylococcus aureus) [µg/mL] | IC50 (P388) [µg/mL] | T/C (Mus musculus [1]) [%] | T/C (Mus musculus [2]) [%] | T/C (Mus musculus [2]; dose […]) [%] | IC50 (KB) [µg/mL] | IC50 (MKN-45) [µg/mL] | IC50 (A-427) [µg/mL] | IC50 (WiDr) [µg/mL] | IC50 (AZ-521 cell line) [µg/mL] | IC50 (HMV-2 cell line) [µg/mL] | IC50 (C-33-A) [µg/mL] | T/C (Mus musculus [2]; dose […] mg/kg, […]) [%]
5 | NC1CCN(c2nc3c(cc2F)c(=O)c(C(=O)O)cn3-c2nccs2)C1 (stereo not given) | 0.025 (≈ 0.0666 µM) | 0.39 (≈ 1.04 µM) | 0.0211 (≈ 0.0562 µM) | >375 | 150 | 213 | – | – | – | – | – | – | – | –
6 | CN[C@H]1CN(c2nc3c(cc2F)c(=O)c(C=O)cn3-c2nccs2)C[C@@H]1OC | 100 (≈ 248 µM) | 12.5 (≈ 31 µM) | 0.0309 (≈ 0.0766 µM) | 325 | 188 | 250 | 0.179 (≈ 0.444 µM) | 0.144 (≈ 0.357 µM) | 0.0749 (≈ 0.186 µM) | 0.264 (≈ 0.654 µM) | 0.0307 (≈ 0.0761 µM) | 0.214 (≈ 0.53 µM) | 0.161 (≈ 0.399 µM) | –
7 | COc1cc([C@@H]2c3cc4c(cc3[C@@H](O[C@@H]3O[C@@H]5CO[C@@H](C)O[C@H]5[C@H](O)[C@H]3O)[C@H]3COC(=O)[C@H]23)OCO4)cc(OC)c1O [ETOPOSIDE] | – | – | – | >375 | 175 | – | 0.201 (≈ 0.342 µM) | 0.49 (≈ 0.833 µM) | – | 1.63 (≈ 2.77 µM) | 0.08 (≈ 0.136 µM) | 0.298 (≈ 0.506 µM) | 0.084 (≈ 0.143 µM) | 250
